Reference: patent US11345700B2, “Methods of preparing inhibitors of influenza viruses replication” (priority 2013, dated 2022)
Read-outs that look alike come from different tables or passages of the source.

Columns and labels:
[1] = Human influenza challenge: safety assessment, adverse events; format: in vivo, healthy volunteers (humans)
Excerpt: A list of adverse events occurring in ≥10% of subjects in any treatment group is presented (Table 29). Influenza-like illness was the most frequently reported adverse event, and was reported by an approximately equal proportion of subjects in the placebo and Compound (1) groups.

[2] = system: influenza A/PR/8/34; experiment: In vivo combination of Compound (1) with zanamivir, influenza A challenge in mice
Excerpt: Efficiency quotient, a composite measure of survival, bodyweight loss and lung function (% survival/(% body weight loss at Day 8)*(Penh at Day 6)) is summarized in Table 19B.

[3] = system: influenza virus; format: in vivo, mice
[4] = system: Influenza A/California/04/2009 (pndH1N1) virus; format: in vivo, BALB/c mice
[5] = system: influenza A/Wisconsin/67/2005 (H3N2) challenge strain virus; experiment: Human influenza challenge: nasal influenza shedding by qRT-PCR; format: in vivo, healthy volunteers (humans)
Method: Subjects underwent thrice daily nasal swabs, and kept thrice daily score cards for clinical symptoms from Days 1-7, and were discharged from the facility on Day 8, with safety follow-up at approximately Day 28. Nasal swabs were assayed for influenza virus in cell culture (primary analysis) and by qRT-PCR (secondary analysis).

[6] = Zanamivir 0.3 mg/kg IN x 1 (24 h prior) + Compound (1) 0.3 mg/kg BID (from 2 h prior)
[7] = Zanamivir 0.3 mg/kg IN x 1 (24 h prior) + Compound (1) 1 mg/kg BID (from 2 h prior)
[8] = Zanamivir 1 mg/kg IN x 1 (24 h prior) + Compound (1) 0.1 mg/kg BID (from 2 h prior)
[9] = Zanamivir 1 mg/kg IN x 1 (24 h prior) + Compound (1) 0.3 mg/kg BID (from 2 h prior)
[10] = Zanamivir 1 mg/kg IN x 1 (24 h prior) + Compound (1) 1 mg/kg BID (from 2 h prior)
[11] = Zanamivir 3 mg/kg IN x 1 (24 h prior) + Compound (1) 0.1 mg/kg BID (from 2 h prior)
[12] = Zanamivir 3 mg/kg IN x 1 (24 h prior) + Compound (1) 0.3 mg/kg BID (from 2 h prior)
[13] = Zanamivir 3 mg/kg IN x 1 (24 h prior) + Compound (1) 1 mg/kg BID (from 2 h prior)
[14] = 1 mg/kg p.o. twice a day for 10 days starting 2 hours prior to virus exposure
[15] = 3 mg/kg p.o. twice a day for 10 days starting 2 hours prior to virus exposure
[16] = 10 mg/kg p.o. twice a day for 10 days starting 2 hours prior to virus exposure
[17] = Pooled Compound (1) dose groups (N = 52)

Q: Which “Adverse event: Dermatitis contact” value ([1]; Pooled Compound (1), N = 72) does the source give for `O=C(O)[C@H]1[C@H]2CC[C@H](CC2)[C@@H]1Nc1nc(-c2c[nH]c3ncc(F)cc23)ncc1F` [Compound (1)] here?
A: Its value is 3 (4.2) n(%).

Q: And the “Adverse event: Headache” value ([1]; Pooled Compound (1), N = 72)?
A: Its value is 7 (9.7) n(%).

Q: And the “Adverse event: Influenza-like illness” value ([1]; Pooled Compound (1), N = 72)?
A: Its value is 34 (47.2) n(%).

Q: And the “Adverse event: Malaise” value ([1]; Pooled Compound (1), N = 72)?
A: The value was 2 (2.8) n(%).

Q: What about the “Adverse event: Nasal congestion” value ([1]; Pooled Compound (1), N = 72) of the same compound?
A: The value was 1 (1.4) n(%).

Q: What about the “Adverse event: Nausea” value ([1]; Pooled Compound (1), N = 72) of the same compound?
A: Its value is 3 (4.2) n(%).

Q: What about the “Adverse event: Oropharylngeal pain” value ([1]; Pooled Compound (1), N = 72) of the same compound?
A: Its value is 3 (4.2) n(%).

Q: And the “Adverse event: Rhinorrhea” value ([1]; Pooled Compound (1), N = 72)?
A: Its value is 3 (4.2) n(%).

Q: And the “Adverse event: Spirometry abnormal” value ([1]; Pooled Compound (1), N = 72)?
A: The value was 10 (13.9) n(%).

Q: What about the “Adverse event: Tension Headache” value ([1]; Pooled Compound (1), N = 72) of the same compound?
A: The value was 3 (4.2) n(%).

Q: And the “discontinuations due to Compound (1)-related adverse events; serious adverse events” value ([1]; healthy volunteers, five daily doses)?
A: The value was “no discontinuations”.

Q: And the “alanine aminotransferase (ALT)” value ([1]; observed in both placebo and Compound (1) recipients)?
A: The value was “elevations in alanine aminotransferase (ALT) were observed”.

Q: And the “Survival Rate” value ([2]; Compound (1) 0.1 mg/kg BID 10 days, 1st dose 2 h prior to infection, Zanamivir 0)?
A: Its value is 12.5.

Q: And the “Survival Rate” value ([2]; Compound (1) 0.3 mg/kg BID 10 days, 1st dose 2 h prior to infection, Zanamivir 0)?
A: Its value is 44.4.

Q: And the “Efficiency Quotient (% survival/(% body weight loss at Day 8)*(Penh at Day 6))” value ([2]; Compound (1) 0.3 mg/kg BID, 1st dose 2 h prior to infection, Zanamivir 0)?
A: Its value is 0.59.

Q: What about the “Survival Rate” value ([2]; Compound (1) 1 mg/kg BID 10 days, 1st dose 2 h prior to infection, Zanamivir 0) of the same compound?
A: The value was 100.

Q: And the “Efficiency Quotient (% survival/(% body weight loss at Day 8)*(Penh at Day 6))” value ([2]; Compound (1) 1 mg/kg BID, 1st dose 2 h prior to infection, Zanamivir 0)?
A: Its value is 2.32.

Q: And the “Survival Rate” value ([2]; Zanamivir 0.3 mg/kg IN x 1 (24 h prior) + Compound (1) 0.1 mg/kg BID (from 2 h prior))?
A: The value was 0.

Q: And the “Efficiency Quotient (% survival/(% body weight loss at Day 8)*(Penh at Day 6))” value [2, 6]?
A: Its value is 1.35.

Q: And the “Survival Rate” value [2, 6]?
A: Its value is 100.

Q: What about the “Efficiency Quotient (% survival/(% body weight loss at Day 8)*(Penh at Day 6))” value [2, 7] of the same compound?
A: The value was 2.97.

Q: What about the “Survival Rate” value [2, 7] of the same compound?
A: The value was 100.

Q: What about the “Efficiency Quotient (% survival/(% body weight loss at Day 8)*(Penh at Day 6))” value [2, 8] of the same compound?
A: The value was 1.00.

Q: And the “Survival Rate” value [2, 8]?
A: The value was 75.

Q: And the “Efficiency Quotient (% survival/(% body weight loss at Day 8)*(Penh at Day 6))” value [2, 9]?
A: Its value is 1.61.

Q: What about the “Survival Rate” value [2, 9] of the same compound?
A: The value was 100.

Q: And the “Efficiency Quotient (% survival/(% body weight loss at Day 8)*(Penh at Day 6))” value [2, 10]?
A: The value was 2.31.

Q: And the “Survival Rate” value [2, 10]?
A: Its value is 100.

Q: What about the “Efficiency Quotient (% survival/(% body weight loss at Day 8)*(Penh at Day 6))” value [2, 11] of the same compound?
A: Its value is 1.30.

Q: What about the “Survival Rate” value [2, 11] of the same compound?
A: Its value is 100.

Q: What about the “Efficiency Quotient (% survival/(% body weight loss at Day 8)*(Penh at Day 6))” value [2, 12] of the same compound?
A: Its value is 1.48.

Q: And the “Survival Rate” value [2, 12]?
A: The value was 100.

Q: And the “Efficiency Quotient (% survival/(% body weight loss at Day 8)*(Penh at Day 6))” value [2, 13]?
A: The value was 4.28.

Q: And the “Survival Rate” value [2, 13]?
A: Its value is 100.

Q: What about the “half maximal reduction in lung titers” value ([3]; mice infected 24 h, then dosed for 24 h (q6 h, q12 h, q24 h)) of the same compound?
A: The value was 2-3 log.

Q: And the “serum-shifted EC99” value ([3]; plasma concentration near which half maximal reduction in lung titers occurs)?
A: The value was 100 ng/mL.

Q: And the “Mean Lung Parameters (Day 6): Score (hemorrhage score 0-4)” value (from here on “Mean Lung Parameters (Day 6): Score”) [4, 14]?
A: Its value is 0.6.

Q: And the “Mean Lung Parameters (Day 6): Virus Titer” value [4, 14]?
A: The value was 5.5 Log10 CCID50/g.

Q: And the “Mean Lung Parameters (Day 6): Weight” value [4, 14]?
A: The value was 246 mg.

Q: What about the “Mean Lung Parameters (Day 6): Score” value [4, 15] of the same compound?
A: Its value is 0.0.

Q: And the “Mean Lung Parameters (Day 6): Virus Titer” value [4, 15]?
A: The value was 3.1 Log10 CCID50/g.

Q: And the “Mean Lung Parameters (Day 6): Weight” value [4, 15]?
A: The value was 123 mg.

Q: And the “Mean Lung Parameters (Day 6): Score” value [4, 16]?
A: The value was 0.2.

Q: And the “Mean Lung Parameters (Day 6): Virus Titer” value [4, 16]?
A: The value was <2.6^d*** Log10 CCID50/g.

Q: And the “Mean Lung Parameters (Day 6): Weight” value [4, 16]?
A: The value was 132 mg.

Q: What about the “Viral Sheeding by qRT-PCR AUC, median” value ([5]; 100 mg QD (N = 12)) of the same compound?
A: The value was 6.05 log10 copies/mL*Day.

Q: And the “Viral Sheeding by qRT-PCR Duration, median” value ([5]; 100 mg QD (N = 12))?
A: Its value is 0.96 days.

Q: And the “Viral Sheeding by qRT-PCR Peak, mean” value ([5]; 100 mg QD (N = 12))?
A: The value was 4.36 log10 TCID50/mL.

Q: What about the “Viral Sheeding by qRT-PCR AUC, median” value ([5]; 400 mg QD (N = 12)) of the same compound?
A: Its value is 4.90 log10 copies/mL*Day.

Q: And the “Viral Sheeding by qRT-PCR Duration, median” value ([5]; 400 mg QD (N = 12))?
A: Its value is 1.36 days.

Q: What about the “Viral Sheeding by qRT-PCR Peak, mean” value ([5]; 400 mg QD (N = 12)) of the same compound?
A: The value was 3.90 log10 TCID50/mL.

Q: What about the “Viral Sheeding by qRT-PCR AUC, median” value ([5]; 900/600 mg (N = 14)) of the same compound?
A: The value was 10.65 log10 copies/mL*Day.

Q: And the “Viral Sheeding by qRT-PCR Duration, median” value ([5]; 900/600 mg (N = 14))?
A: Its value is 2.39 days.

Q: And the “Viral Sheeding by qRT-PCR Peak, mean” value ([5]; 900/600 mg (N = 14))?
A: The value was 5.08 log10 TCID50/mL.

Q: What about the “Viral Sheeding by qRT-PCR AUC, median” value ([5]; 1200/600 mg (N = 14)) of the same compound?
A: Its value is 0.45 log10 copies/mL*Day.

Q: And the “Viral Sheeding by qRT-PCR Duration, median” value ([5]; 1200/600 mg (N = 14))?
A: Its value is 0.00 days.

Q: What about the “Viral Sheeding by qRT-PCR Peak, mean” value ([5]; 1200/600 mg (N = 14)) of the same compound?
A: The value was 2.37 log10 TCID50/mL.

Q: What about the “Viral Sheeding by qRT-PCR AUC, median” value [5, 17] of the same compound?
A: The value was 3.45 log10 copies/mL*Day.

Q: What about the “Viral Sheeding by qRT-PCR Duration, median” value [5, 17] of the same compound?
A: The value was 0.71 days.

Q: And the “Viral Sheeding by qRT-PCR Peak, mean” value [5, 17]?
A: The value was 3.91 log10 TCID50/mL.
